Laboratory results reported in patent US20210128609A1, “ONCOLOGY TREATMENTS USING ZINC AGENTS” (XYLONIX IP HOLDINGS PTE. LTD., priority 2018, published 2021).

Assays:
Assay type in all cases: cell-based
[1] = test system: KARPAS-422; assay: CellTiter-Glo cell viability, KARPAS-422
Method: (§1) The 50% inhibitory concentration (IC50) was determined in the cancer cell lines using CellTiter-Glo luminescent cell viability assay after incubation with different concentrations of active agents. Each cell line was treated with active Zn(II) agent, a standard chemotherapy drug as reference control, and culture medium as vehicle control. Cell Lines. All cell lines were cultured in media supplemented with 10-15% FBS, at a temperature of 37° C., 5% CO2, and 95% humidity. The reference control drug for all cell lines was cisplatin, to be used for genomic analysis. The cell lines tested, the tissue of origin are shown below in Table 1: Procedure for Determining Half Maximal Inhibition Concentration IC50 • 1. Harvested cells during the logarithmic growth period and count cell number using Count-star. • 2. Adjusted cell concentrations to 4.44×10^4 cells/mL with respective culture medium. • 3. Added 90 μL cell suspensions to two 96-well plates (plates A and B) with the final cell density of 4×10^3 cells/well. (cell concentration was adjusted according to the data base or density optimization assay.) • 4a. Next day: For the plates of TO reading: • 1) Added 10 μL culture medium to each well of plate A for TO reading. • 2) Equilibrated the plate and its content at RT for approximately 30 min. • 3) Added 50 μL CellTiter-Glo reagent to each well. • 4) Mixed content for 5 min on an orbital shaker to induce cell lysis. • 5) Allowed the plate to incubate at RT for 20 min to stabilize luminescent signal. • 6) Recorded luminescence (TO) using EnVision Multi Label Reader. • 4b. For the plates of test reading: • 1) Prepared 10× solution of Zn(II) agent test article. […] The formula for calculating surviving rate is shown below and the absolute IC50 (EC50) was calculated according to the dose-response curve generated by GraphPad Prism 5.0. • 12) The surviving rate (%)=(LumTest article−LumMedium control)/(LumNon-treated−LumMedium control)×100%.

[2] = test system: Ramos; assay: CellTiter-Glo cell viability, Ramos
Method: as §1

[3] = test system: EOL-1; assay: CellTiter-Glo cell viability, EOL-1
Method: as §1

[4] = test system: HL-60; assay: CellTiter-Glo cell viability, HL-60
Method: as §1

[5] = test system: Hep G2; assay: CellTiter-Glo cell viability, Hep G2
Method: as §1

[6] = test system: JJN-3; assay: CellTiter-Glo cell viability, JJN-3
Method: as §1

[7] = test system: DU4475; assay: CellTiter-Glo cell viability, DU4475
Method: as §1

[8] = test system: SK-OV-3; assay: CellTiter-Glo cell viability, SK-OV-3
Method: (§2) The 50% inhibitory concentration (IC50) was determined in the cancer cell lines using CellTiter-Glo luminescent cell viability assay after incubation with different concentrations of active agents. Each cell line was treated with active Zn(II) agent, a standard chemotherapy drug as reference control, and culture medium as vehicle control. Cell Lines. All cell lines were cultured in media supplemented with 10-15% FBS, at a temperature of 37° C., 5% CO2, and 95% humidity. The reference control drug for all cell lines was cisplatin, to be used for genomic analysis. The cell lines tested, the tissue of origin are shown below in Table 1: Procedure for Determining Half Maximal Inhibition Concentration IC50 • 1. Harvested cells during the logarithmic growth period and count cell number using Count-star. • 2. Adjusted cell concentrations to 4.44×10^4 cells/mL with respective culture medium. • 3. Added 90 μL cell suspensions to two 96-well plates (plates A and B) with the final cell density of 4×10^3 cells/well. (cell concentration was adjusted according to the data base or density optimization assay.) • 4a. […]

[9] = test system: NCI-H460; assay: CellTiter-Glo cell viability, NCI-H460
Method: as §1

[10] = test system: CA46; assay: CellTiter-Glo cell viability, CA46
Method: as §1

[11] = test system: Daudi; assay: CellTiter-Glo cell viability, Daudi
Method: as §1

[12] = test system: Hep3B; assay: CellTiter-Glo cell viability, Hep3B
Method: as §1

[13] = test system: OVCAR-3; assay: CellTiter-Glo cell viability, OVCAR-3
Method: as §1

[14] = test system: HCC1954; assay: CellTiter-Glo cell viability, HCC1954
Method: as §1

[15] = test system: HeLa; assay: CellTiter-Glo cell viability, HeLa
Method: as §2

[16] = test system: 50 cancer cell lines; assay: 50 cell line screen, summary of eradication; settings: out of 50 cell lines
Method: as §1, with “control.” for “control. Cell Lines. All cell lines were cultured in media supplemented with 10-15% FBS, at a temperature of 37° C., 5% CO2, and 95% humidity. The reference control drug for all cell lines was cisplatin, to be used for genomic analysis. The cell lines tested, the tissue of origin are shown below in Table 1:”, “control)×100%. Stratifying the cell line panel makeup, the 50 cell lines included 30 blood cancers (17 leukemia and 13 lymphoma cell lines) and 20 solid tumor cancers, including breast (3), cervical (1), colorectum (1), liver (4), lung (4), ovarian (2), pancreas (2), prostate (2), and uterine (1) cancer cell lines.” for “control)×100%.”

[17] = test system: ML-2; assay: CellTiter-Glo cell viability, ML-2
Method: as §1

[18] = 96 h, top conc. 50 μg/mL Zn(II) agent, 100 μM cisplatin

With `N.N.[Cl][Pt][Cl]` [Cisplatin] the “Absolute IC50” value ([1]; 96 h, CellTiter-Glo) was 0.37 µg/mL, the “% inhibition at top conc.” value [1, 18] was 99.99% and the HillSlope ([1]; 96 h dose-response fit) was −1.04. For the same compound, the “Absolute IC50” value ([2]; 96 h, CellTiter-Glo) was 0.17 µg/mL, the “% inhibition at top conc.” value [2, 18] was 99.99% and the HillSlope ([2]; 96 h dose-response fit) was −2.13. For the same compound, the “Absolute IC50” value ([3]; 96 h, CellTiter-Glo) was 0.16 µg/mL, the “% inhibition at top conc.” value [3, 18] was 99.99% and the HillSlope ([3]; 96 h dose-response fit) was −1.87. For the same compound, the “Absolute IC50” value ([4]; 96 h, CellTiter-Glo) was 0.29 µg/mL, the “% inhibition at top conc.” value [4, 18] was 99.99% and the HillSlope ([4]; 96 h dose-response fit) was −2.08. For the same compound, the “Absolute IC50” value ([5]; 96 h, CellTiter-Glo) was 0.55 µg/mL, the “% inhibition at top conc.” value [5, 18] was 98.96% and the HillSlope ([5]; 96 h dose-response fit) was −0.90. The “Absolute IC50” value ([6]; 96 h, CellTiter-Glo) was 0.28 µg/mL, the “% inhibition at top conc.” value [6, 18] was 99.81% and the HillSlope ([6]; 96 h dose-response fit) was −1.17. The “Absolute IC50” value ([7]; 96 h, CellTiter-Glo) was 0.31 µg/mL, the “% inhibition at top conc.” value [7, 18] was 99.94% and the HillSlope ([7]; 96 h dose-response fit) was −2.54. The “% inhibition at top conc.” value [8, 18] was 98.22%, the HillSlope ([8]; 96 h dose-response fit) was −1.68 and the “Absolute IC50” value ([9]; 96 h, CellTiter-Glo) was 0.15 µg/mL. The “% inhibition at top conc.” value [9, 18] was 99.98%, the HillSlope ([9]; 96 h dose-response fit) was −1.63 and the “Absolute IC50” value ([10]; 96 h, CellTiter-Glo) was 0.21 µg/mL. For the same compound, the “% inhibition at top conc.” value [10, 18] was 99.92%, the HillSlope ([10]; 96 h dose-response fit) was −1.96 and the “Absolute IC50” value ([11]; 96 h, CellTiter-Glo) was 0.11 µg/mL. The “% inhibition at top conc.” value [11, 18] was 99.86%, the HillSlope ([11]; 96 h dose-response fit) was −1.59 and the “Absolute IC50” value ([12]; 96 h, CellTiter-Glo) was 0.78 µg/mL. For the same compound, the “% inhibition at top conc.” value [12, 18] was 99.58%, the HillSlope ([12]; 96 h dose-response fit) was −1.50 and the “Absolute IC50” value ([13]; 96 h, CellTiter-Glo) was 1.08 µg/mL. The “% inhibition at top conc.” value [13, 18] was 97.70%, the HillSlope ([13]; 96 h dose-response fit) was −2.96 and the “Absolute IC50” value ([14]; 96 h, CellTiter-Glo) was 1.59 µg/mL. For the same compound, the “% inhibition at top conc.” value [14, 18] was 99.87%, the HillSlope ([14]; 96 h dose-response fit) was −1.98 and the “% inhibition at top conc.” value [15, 18] was 99.91%. The HillSlope ([15]; 96 h dose-response fit) was −1.70, the “number of cell lines with more than 97% eradication” value [16] was 45 and the “number of cell lines with more than 99% eradication” value [16] was 39. For the same compound, the “number of cell lines with poor response of less than 90% eradication” value [16] was 2, the “Absolute IC50” value ([17]; 96 h, CellTiter-Glo) was 0.32 µg/mL and the “% inhibition at top conc.” value [17, 18] was 100.00%. For the same compound, the HillSlope ([17]; 96 h dose-response fit) was −3.28.
